Values after ≈ are worked out from the molar mass of the structure shown.
Tests used:
[1] = system: rat P-gp; experiment: Substrate activity at rat P-gp assessed as efflux ratio at 1 uM; type: ADME; conditions: not told
[2] = target: T1, Ceramide glucosyltransferase (Homo sapiens, UniProt Q16739); experiment: Inhibition of GCS in human fibroblast; type: cell-based
T1 sequence (Q16739 whole entry): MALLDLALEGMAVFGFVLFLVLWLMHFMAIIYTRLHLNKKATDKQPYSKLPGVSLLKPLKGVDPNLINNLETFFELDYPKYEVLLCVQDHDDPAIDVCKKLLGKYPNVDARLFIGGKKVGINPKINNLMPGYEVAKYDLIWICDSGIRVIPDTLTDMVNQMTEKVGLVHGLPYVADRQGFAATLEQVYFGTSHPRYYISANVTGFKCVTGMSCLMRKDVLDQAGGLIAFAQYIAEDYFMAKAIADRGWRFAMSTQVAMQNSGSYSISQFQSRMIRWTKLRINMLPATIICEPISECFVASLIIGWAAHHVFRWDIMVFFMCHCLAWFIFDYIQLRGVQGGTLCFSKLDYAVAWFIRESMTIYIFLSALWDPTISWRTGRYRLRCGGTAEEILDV

[3] = target: T2, mouse BCRP (ABCG2) (Mus musculus, UniProt Q7TMS5); experiment: Substrate activity at mouse BCRP assessed as efflux ratio at 1 uM; type: ADME; conditions: not told
T2 sequence (Q7TMS5 whole entry): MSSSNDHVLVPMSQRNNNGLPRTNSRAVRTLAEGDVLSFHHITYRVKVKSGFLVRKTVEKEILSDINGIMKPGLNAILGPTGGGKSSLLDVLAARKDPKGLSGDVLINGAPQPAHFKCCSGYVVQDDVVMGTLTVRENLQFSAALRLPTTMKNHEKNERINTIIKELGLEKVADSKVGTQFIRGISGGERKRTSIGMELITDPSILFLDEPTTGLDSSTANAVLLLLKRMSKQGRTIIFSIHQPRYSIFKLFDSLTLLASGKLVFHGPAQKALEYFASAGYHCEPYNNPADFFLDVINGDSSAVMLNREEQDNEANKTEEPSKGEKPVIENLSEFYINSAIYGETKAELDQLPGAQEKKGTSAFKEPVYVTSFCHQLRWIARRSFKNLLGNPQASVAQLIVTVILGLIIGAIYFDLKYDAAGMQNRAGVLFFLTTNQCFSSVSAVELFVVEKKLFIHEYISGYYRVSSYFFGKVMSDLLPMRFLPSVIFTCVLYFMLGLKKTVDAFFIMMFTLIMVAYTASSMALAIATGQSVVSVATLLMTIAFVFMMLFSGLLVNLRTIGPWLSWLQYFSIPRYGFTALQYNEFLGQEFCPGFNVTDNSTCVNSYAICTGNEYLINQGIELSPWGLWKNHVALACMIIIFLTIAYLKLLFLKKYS

[4] = target: T2, mouse BCRP (ABCG2); experiment: Substrate activity at mouse BCRP assessed as apparent permeability at 1 uM; type: ADME; conditions: not told
[5] = Unbound fraction in dog plasma; type: ADME, cell-free, Canis lupus familiaris
[6] = Lipophilicity, logD of compound by HPLC method; type: physicochemical
[7] = Solubility of compound at pH 2 by HPLC method; type: physicochemical; conditions: buffer
[8] = Solubility of compound at pH 7 by HPLC method; type: physicochemical; conditions: buffer
[9] = target: Cytochrome P450 3A4 (Homo sapiens, UniProt P08684); experiment: Inhibition of CYP3A4 (unknown origin); type: ADME
[10] = target: Cytochrome P450 2C9 (Homo sapiens, UniProt P11712); experiment: Inhibition of CYP2C9 (unknown origin); type: ADME
[11] = target: T3, Nuclear receptor subfamily 1 group I member 2 (Homo sapiens, UniProt O75469); experiment: Activation of PXR (unknown origin)
T3 sequence (O75469 whole entry): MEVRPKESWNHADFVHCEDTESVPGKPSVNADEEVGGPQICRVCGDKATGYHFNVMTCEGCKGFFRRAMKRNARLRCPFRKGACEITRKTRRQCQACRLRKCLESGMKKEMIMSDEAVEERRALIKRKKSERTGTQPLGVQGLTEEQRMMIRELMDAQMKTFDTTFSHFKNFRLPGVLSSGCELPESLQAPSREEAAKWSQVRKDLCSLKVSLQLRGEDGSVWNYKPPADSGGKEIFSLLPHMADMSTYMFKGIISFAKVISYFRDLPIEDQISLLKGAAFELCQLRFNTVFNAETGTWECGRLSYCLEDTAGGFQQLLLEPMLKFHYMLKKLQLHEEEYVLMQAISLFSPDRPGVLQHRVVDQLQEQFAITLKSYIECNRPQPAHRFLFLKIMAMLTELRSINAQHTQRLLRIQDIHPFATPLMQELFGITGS

[12] = target: Voltage-gated inwardly rectifying potassium channel KCNH2 (Homo sapiens, UniProt Q12809); experiment: Inhibition of human ERG; type: toxicity
[13] = target: T4, Muscarinic acetylcholine receptor M5 (Homo sapiens, UniProt P08912); experiment: Inhibition of human muscarinic M5 receptor
T4 sequence (P08912 whole entry): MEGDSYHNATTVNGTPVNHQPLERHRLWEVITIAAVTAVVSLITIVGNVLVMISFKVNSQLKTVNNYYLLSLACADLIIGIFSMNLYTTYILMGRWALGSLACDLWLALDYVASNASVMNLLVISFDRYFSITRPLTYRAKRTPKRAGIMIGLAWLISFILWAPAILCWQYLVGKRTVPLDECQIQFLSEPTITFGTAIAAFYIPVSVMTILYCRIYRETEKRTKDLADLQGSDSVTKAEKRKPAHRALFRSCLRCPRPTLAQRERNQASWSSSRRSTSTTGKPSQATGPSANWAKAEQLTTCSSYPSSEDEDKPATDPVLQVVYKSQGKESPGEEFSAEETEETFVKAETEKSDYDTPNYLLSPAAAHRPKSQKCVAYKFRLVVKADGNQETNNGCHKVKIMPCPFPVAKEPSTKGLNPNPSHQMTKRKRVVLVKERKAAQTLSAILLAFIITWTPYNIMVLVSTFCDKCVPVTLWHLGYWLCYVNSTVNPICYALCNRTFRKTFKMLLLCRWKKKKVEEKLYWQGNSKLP

[14] = target: Neuronal acetylcholine receptor subunit alpha-3 (Homo sapiens, UniProt P30926+P32297); experiment: Inhibition of human alpha3beta4 nAChR
[15] = Unbound volume of distribution at steady state in rat; type: ADME; conditions: in vivo
[16] = Intrinsic clearance in dog; type: ADME, Canis lupus familiaris
[17] = Unbound volume of distribution at steady state in dog; type: ADME, Canis lupus familiaris; conditions: in vivo

Chain of Neuronal acetylcholine receptor subunit alpha-3 (P32297 whole entry, one chain of several): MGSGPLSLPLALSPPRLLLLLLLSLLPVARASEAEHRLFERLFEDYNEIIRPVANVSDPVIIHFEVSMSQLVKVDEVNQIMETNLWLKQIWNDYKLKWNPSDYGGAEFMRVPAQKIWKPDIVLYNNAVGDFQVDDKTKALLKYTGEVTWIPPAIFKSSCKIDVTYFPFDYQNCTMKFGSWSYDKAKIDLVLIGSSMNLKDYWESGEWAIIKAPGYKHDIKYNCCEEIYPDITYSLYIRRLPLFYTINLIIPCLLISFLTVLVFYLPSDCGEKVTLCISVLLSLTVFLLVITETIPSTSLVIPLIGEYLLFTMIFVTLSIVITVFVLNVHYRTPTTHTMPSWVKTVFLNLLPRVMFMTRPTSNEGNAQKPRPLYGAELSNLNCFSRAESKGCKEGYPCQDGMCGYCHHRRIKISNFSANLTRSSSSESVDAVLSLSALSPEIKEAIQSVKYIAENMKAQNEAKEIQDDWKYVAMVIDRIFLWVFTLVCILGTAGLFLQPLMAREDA
Chain of Cytochrome P450 3A4 (P08684 whole entry): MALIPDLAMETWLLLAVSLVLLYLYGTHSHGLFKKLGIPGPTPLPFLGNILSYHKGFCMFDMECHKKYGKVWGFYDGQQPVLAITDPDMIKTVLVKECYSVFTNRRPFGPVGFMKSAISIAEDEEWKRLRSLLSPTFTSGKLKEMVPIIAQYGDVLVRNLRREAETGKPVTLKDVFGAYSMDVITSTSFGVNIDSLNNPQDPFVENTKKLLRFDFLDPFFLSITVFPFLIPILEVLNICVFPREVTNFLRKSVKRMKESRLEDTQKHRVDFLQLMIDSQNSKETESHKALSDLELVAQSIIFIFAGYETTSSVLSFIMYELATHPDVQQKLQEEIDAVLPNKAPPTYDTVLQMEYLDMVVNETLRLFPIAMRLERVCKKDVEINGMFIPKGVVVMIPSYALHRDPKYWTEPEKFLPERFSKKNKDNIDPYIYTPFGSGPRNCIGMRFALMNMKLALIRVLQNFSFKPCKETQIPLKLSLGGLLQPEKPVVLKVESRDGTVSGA
Chain of Cytochrome P450 2C9 (P11712 whole entry): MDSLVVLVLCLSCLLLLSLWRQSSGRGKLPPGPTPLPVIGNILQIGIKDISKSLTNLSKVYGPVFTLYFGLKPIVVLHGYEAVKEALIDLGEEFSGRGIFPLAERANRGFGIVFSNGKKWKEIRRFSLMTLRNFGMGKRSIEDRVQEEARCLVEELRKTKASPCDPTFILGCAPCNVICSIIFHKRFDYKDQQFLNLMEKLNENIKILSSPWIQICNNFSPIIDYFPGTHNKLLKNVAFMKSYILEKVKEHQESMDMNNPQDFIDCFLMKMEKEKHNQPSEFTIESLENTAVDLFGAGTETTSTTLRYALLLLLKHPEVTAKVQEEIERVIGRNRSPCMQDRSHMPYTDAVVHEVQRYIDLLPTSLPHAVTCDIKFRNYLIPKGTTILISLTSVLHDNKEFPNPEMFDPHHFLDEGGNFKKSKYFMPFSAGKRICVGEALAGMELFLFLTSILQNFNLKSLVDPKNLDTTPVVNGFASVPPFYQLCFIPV
Chain of Voltage-gated inwardly rectifying potassium channel KCNH2 (Q12809 whole entry): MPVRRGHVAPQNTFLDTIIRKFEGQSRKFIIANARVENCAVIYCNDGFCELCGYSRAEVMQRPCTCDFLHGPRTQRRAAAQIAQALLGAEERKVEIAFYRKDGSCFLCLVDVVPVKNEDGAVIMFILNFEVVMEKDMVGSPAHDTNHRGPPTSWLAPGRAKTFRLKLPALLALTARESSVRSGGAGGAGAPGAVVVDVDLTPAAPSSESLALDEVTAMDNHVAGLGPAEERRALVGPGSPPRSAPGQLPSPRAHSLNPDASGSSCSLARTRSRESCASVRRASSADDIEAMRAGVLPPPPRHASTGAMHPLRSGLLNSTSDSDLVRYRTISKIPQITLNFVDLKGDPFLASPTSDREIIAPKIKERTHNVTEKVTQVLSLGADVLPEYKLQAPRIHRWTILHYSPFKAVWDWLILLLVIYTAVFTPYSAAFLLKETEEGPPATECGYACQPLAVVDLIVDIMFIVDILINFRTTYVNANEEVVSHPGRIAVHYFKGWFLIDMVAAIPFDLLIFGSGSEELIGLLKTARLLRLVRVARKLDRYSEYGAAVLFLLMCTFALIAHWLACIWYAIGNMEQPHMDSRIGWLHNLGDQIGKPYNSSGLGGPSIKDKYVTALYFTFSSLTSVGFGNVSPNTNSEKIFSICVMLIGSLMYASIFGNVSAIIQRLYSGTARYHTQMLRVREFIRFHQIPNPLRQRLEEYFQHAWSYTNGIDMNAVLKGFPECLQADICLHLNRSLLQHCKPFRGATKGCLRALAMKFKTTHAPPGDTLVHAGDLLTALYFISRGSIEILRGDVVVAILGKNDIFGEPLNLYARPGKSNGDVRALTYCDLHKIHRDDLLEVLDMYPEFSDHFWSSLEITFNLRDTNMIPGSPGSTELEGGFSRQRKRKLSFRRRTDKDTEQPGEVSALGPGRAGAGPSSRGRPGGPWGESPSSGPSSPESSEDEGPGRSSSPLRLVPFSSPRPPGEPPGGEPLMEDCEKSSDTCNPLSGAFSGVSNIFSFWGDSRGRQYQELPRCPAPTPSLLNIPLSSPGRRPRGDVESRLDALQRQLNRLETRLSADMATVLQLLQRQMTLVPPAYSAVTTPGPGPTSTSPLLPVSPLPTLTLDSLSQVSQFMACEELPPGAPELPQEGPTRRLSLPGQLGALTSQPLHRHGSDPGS

SMILES	efflux ratio at 1 µM [1]	IC50 [2] [µM]	efflux ratio at 1 µM [3]	Papp at 1 µM [4] [nm/s]	fraction unbound [5]	logD [6]	solubility [7] [µM]	solubility [8] [µM]	IC50 [9] [µM]	IC50 [10] [µM]	EC50 [11] [µM]	IC50 [12] [µM]	IC50 [13] [µM]	IC50 [14] [µM]	fVdss [15] [L/kg]	CLint scaled [16] [L/h/kg]	fVdss [17] [L/kg]
O=C(N1CCN2CCC1CC2)n1nc(-c2ccc(F)cc2)c2c1COCC2	3.4	0.034	1.4	310	0.3	2.2	167 (≈ 61.9 µg/mL)	170 (≈ 63 µg/mL)	> 50	> 50	> 30	2	10.2	2.2	17	412	21
Cl.O=C(N1CCN2CCC1CC2)n1nc(-n2cc(C(F)(F)F)cn2)c2c1COCC2	4.6	0.032	1.3	310	0.27	2.5	174	168	> 50	> 50	> 30	4.1	10.2	2.2	16	4.5	49

— ChEMBL document CHEMBL5223177, “Pyrazole Ureas as Low Dose, CNS Penetrant Glucosylceramide Synthase Inhibitors for the Treatment of Parkinson's Disease” (ACS Med Chem Lett, 2023)
